Test results taken from paper PMC8162438, “Cancer cell-selective modulation of mitochondrial respiration and metabolism by potent organogold(III) dithiocarbamates” (Chemical Science, 2020).

Tested on: MRC5
Test: MTT cell viability, human fetal lung fibroblasts MRC5
Format: cell-based
Details: 72 h
Description: All the gold(III) dithiocarbamate compounds display remarkable cell killing potential in a panel of breast, ovarian, lung and leukemia cancers. Preliminary studies focused on different cancer cell lines (MDA-MB-231, MDA-MB-175, and A2780), an immortalized normal retinal epithelial cell line (RPE-NEO) and human fetal lung fibroblasts (MRC5) (Fig. S111–S129 ^†). These adherent cells were exposed to a serial-diluted concentration of all ten compounds for 72 h. The cells were subsequently treated with 3-(4,5-dimethylthiazol-2-yl)-2,5-diphenyltetrazolium bromide (MTT) solutions, dissolved with DMSO and the absorbance at 570 nm was measured with a plate-reader.
In Vitro Biological Assays
Cell Culture. All cell lines were purchased from ATCC and routinely grown in a humidified incubator at 37 °C with 5-10% CO 2. MDA-MB-231, MDA-MB-175, MRC5, RPE-NEO, H460, and K562 were grown in DMEM supplemented with 10% FBS, 1% amphotericin and 1% penicillin/streptomycin. A2780 cells were grown in RPMI supplemented with 10% FBS, 1% amphotericin, and 1% penicillin/streptomycin, and 4 mM glutamine. All supplements along with PBS and trypsin-EDTA were purchased from Corning Inc. and used as is. […]
Cell Viability of 1a-1e and 2a-2e (Adherent Cell Lines). The cell viability of all 10 complexes were performed in MDA-MB-231, MDA-MB-175, A2780, RPE-NEO and MRC5. The cell viability of compound 2a was also determined in H460. Cells were grown to confluency and trypsin was added to detach and harvest cells. The cells were washed with 2 mL of PBS and suspended in 10 mL of the appropriate media. The cells were centrifuged at 2000 rpm for 5 minutes and the pellet washed with 2 mL of PBS then suspended in 5 mL of the appropriate […]
media. The cells were plated at a density of 2,000 cells/well in a 96-well clear bottom plate and allowed to adhere overnight at 37 °C with 5-10% CO 2. The compounds were prepared as a stock in DMSO and used fresh. The compounds were added at seven concentrations with a 3x serial dilution starting at 50 µM for the highest concentration and incubated at 37 °C for 72 h with 5-10% CO 2. The medium was removed and a solution of MTT (100 µL, prepared by dissolving MTT at 5 mg/mL and diluting by 10x with DMEM) was added to each well and incubated for 4 h at 37 ° C with 5-10% CO 2. The dye was removed from each well and 100 µL of DMSO was added to induce cell lysis. The plates were read using a Genios plate reader (λ = 570 nm). The experiment was performed in triplicate and data are plotted as the mean ± s.e.m. (n = 3). Data for 2a can be found in the main text (Figure 6) and the other complexes can be seen in the supplementary figures (S111 – S129). […]
Cells were grown to confluency and centrifuged at 2000 rpm for 5 minutes to collect the cell pellet. The cells were washed with 5 mL of PBS, suspended in 5 mL of DMEM, and centrifuged again at 2000 rpm for 5 minutes to collect the pellet. The pellet was then washed with 2 mL of PBS and suspended in 5 mL of DMEM. The cells were plated at density of 2,000 cells/well in a 96-well white bottom plate. 2a was prepared as a stock solution […]
10% CO 2. The cells were removed from the incubator and allowed to rest at room temperature for 30 minutes. To each designated well was then added 20 µL of CellTiter-Glo solution and orbitally shaken for 5 minutes and the luminescence (1000 ms integration and 150 ms gain) acquired on a Genios plate reader. The experiment was performed in triplicate. Data are plotted […]
Apoptosis Analysis. […]
A stock of 2a was prepared fresh in DMSO and added to the desired well at a concentration of 1 µM with a final volume of 2.5 mL and incubated for 4 h at 37 °C. A stock of H2O2 was prepared in PBS and the cells treated at a final concentration of 2 mM for 1 hour as a […]

Structure (SMILES) | IC50
C[N+](C)=C1[S][Au-2]2([S]1)[c]1ccccc1C(=O)c1cccc[n+]12.F[P-](F)(F)(F)(F)F (centres unmarked) [1a] | > 50 µM
C[N+](C)=C1[S][Au-2]2([S]1)[c]1ccccc1Cc1cccc[n+]12.F[P-](F)(F)(F)(F)F (centres unmarked) [2a] | > 50 µM
